Starred links: 1 amine or outer side, 2 acyl side, 3 side chain; linkers in the order of their positions; H or OH if unused. Non-standard residues stand in square brackets, D forms with d. Residues, ends and D or L forms follow the SMILES beside them. Groups on a side chain read outwards from the residue. *: point of attachment. X3 = O=C(O)CCCCCCCCCCCCCCCCCCC(=O)NC[C@H]1CC[C@H](C(=O)N[C@@H](CCC(=O)NCCOCCOCC(=O)NCCOCCOCC(=O)N[C@@H](CCCCN*)C(=O)O)C(=O)O)CC1; C20 diacid = O=C(O)CCCCCCCCCCCCCCCCCCC(=O)*; γGlu = O=C(O)[C@H](CCC(=O)[*:2])N[*:1]; Desaminohistidyl = O=C(CCc1c[nH]cn1)*; βAsp = O=C(O)[C@H](CC(=O)[*:2])N[*:1]; AEEA = NCCOCCOCC(=O)O; Aib = CC(C)(N)C(=O)O; Inp = O=C(O)C1CCNCC1
Biological target: human serum albumin (HSA) (Homo sapiens, UniProt P02768)
Sequence (P02768 25-609): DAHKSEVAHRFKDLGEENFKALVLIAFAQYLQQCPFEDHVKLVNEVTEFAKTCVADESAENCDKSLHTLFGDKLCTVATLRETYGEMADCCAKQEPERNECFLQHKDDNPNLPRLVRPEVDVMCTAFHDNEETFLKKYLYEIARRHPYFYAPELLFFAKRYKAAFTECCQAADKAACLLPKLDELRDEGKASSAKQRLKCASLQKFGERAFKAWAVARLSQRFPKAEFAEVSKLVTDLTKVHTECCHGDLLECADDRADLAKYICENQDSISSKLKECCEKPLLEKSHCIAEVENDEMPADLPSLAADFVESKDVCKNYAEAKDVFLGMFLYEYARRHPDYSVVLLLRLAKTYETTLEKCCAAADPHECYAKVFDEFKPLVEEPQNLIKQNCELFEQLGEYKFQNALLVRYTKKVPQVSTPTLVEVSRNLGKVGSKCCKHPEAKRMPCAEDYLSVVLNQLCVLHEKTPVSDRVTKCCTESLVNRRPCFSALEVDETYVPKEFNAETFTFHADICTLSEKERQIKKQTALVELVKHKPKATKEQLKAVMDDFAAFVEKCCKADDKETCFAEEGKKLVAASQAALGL
Assay: Albumin binding affinity, competition scintillation proximity assay
Procedure: Streptavidin-SPA beads (GE Healthcare RPNQ0009) were incubated with biotinylated HSA for 5 hours. The beads were washed with buffer to remove unbound HSA. […] After 20 hours of gentle rocking at room temperature the plates were centrifuged and counted on a TopCounter.

EC50 at 20 h (human, biotinylated human serum albumin on streptavidin-SPA beads, pH 7.4) [µM]	EC50 [µM]	SMILES
0.15 to 0.3		CC[C@H](C)[C@H](NC(=O)[C@H](Cc1ccccc1)NC(=O)[C@H](CCC(=O)O)NC(=O)[C@H](CCCNC(=N)N)NC(=O)[C@H](C)NC(=O)[C@H](C)NC(=O)[C@H](CCC(N)=O)NC(=O)[C@H](CCC(=O)O)NC(=O)[C@H](CCC(=O)O)NC(=O)[C@H](CC(C)C)NC(=O)[C@H](Cc1ccc(O)cc1)NC(=O)[C@H](CO)NC(=O)[C@H](CO)NC(=O)[C@@H](NC(=O)[C@H](CC(=O)O)NC(=O)[C@H](CO)NC(=O)[C@@H](NC(=O)[C@H](Cc1ccccc1)NC(=O)[C@@H](NC(=O)CNC(=O)[C@H](CCC(=O)O)NC(=O)[C@H](C)NC(=O)CCc1c[nH]cn1)[C@@H](C)O)[C@@H](C)O)C(C)C)C(=O)N[C@@H](C)C(=O)N[C@@H](Cc1c[nH]c2ccccc12)C(=O)N[C@@H](CC(C)C)C(=O)N[C@H](C(=O)N[C@@H](CCCNC(=N)N)C(=O)NCC(=O)N[C@@H](CCCNC(=N)N)C(=O)NCC(=O)N[C@@H](CCCCNC(=O)COCCOCCNC(=O)CC[C@H](NC(=O)C1CCN(C(=O)CCCCCCCCCCCCCCCCCCC(=O)O)CC1)C(=O)O)C(=O)O)C(C)C [Example 55, [DesaminoHis7,Glu22,Arg26,34]-GLP-1 (7-37)-Lys-(2-{2-[2-((S)-4-carboxy-4-{[1-(19-carboxynonadecanoyl)piperidine-4-carbonyl]amino}butyrylamino)ethoxy]ethoxy}acetyl) peptide] (Desaminohistidyl-AEGTFTSDVSSYLEEQAAREFIAWLVRGRGK([AEEA-γGlu-Inp-C20 diacid])-OH)
	> 2	CC[C@H](C)[C@H](NC(=O)[C@H](Cc1ccccc1)NC(=O)[C@H](CCC(=O)O)NC(=O)[C@H](CCCNC(=N)N)NC(=O)[C@H](C)NC(=O)[C@H](C)NC(=O)[C@H](CCC(N)=O)NC(=O)CNC(=O)[C@H](CCC(=O)O)NC(=O)[C@H](CC(C)C)NC(=O)[C@H](Cc1ccc(O)cc1)NC(=O)[C@H](CO)NC(=O)[C@H](CO)NC(=O)[C@@H](NC(=O)[C@H](CC(=O)O)NC(=O)[C@H](CO)NC(=O)[C@@H](NC(=O)[C@H](Cc1ccccc1)NC(=O)[C@@H](NC(=O)CNC(=O)[C@H](CCC(=O)O)NC(=O)[C@H](C)NC(=O)CCc1c[nH]cn1)[C@@H](C)O)[C@@H](C)O)C(C)C)C(=O)N[C@@H](C)C(=O)N[C@@H](Cc1c[nH]c2ccccc12)C(=O)N[C@@H](CC(C)C)C(=O)N[C@H](C(=O)N[C@@H](CCCNC(=N)N)C(=O)NCC(=O)N[C@@H](CCCNC(=N)N)C(=O)NCC(=O)N[C@@H](CCCCNC(=O)COCCOCCNC(=O)COCCOCCNC(=O)CC[C@H](NC(=O)C1CCN(C(=O)CCCCCCCCCCCCCCCCCCC(=O)O)CC1)C(=O)O)C(=O)O)C(C)C [Example 59, [DesaminoHis7,Arg26,34]-GLP-1 (7-37)-Lys(2-{2-[2-(2-{2-[2-((S)-4-Carboxy-4-{[1-(19-carboxynonadecanoyl)piperidine-4-carbonyl]amino}butyrylamino)ethoxy]ethoxy}acetylamino)ethoxy]ethoxy}acetyl) peptide]
	0.15 to 0.3	CC[C@H](C)[C@H](NC(=O)[C@H](Cc1ccccc1)NC(=O)[C@H](CCC(=O)O)NC(=O)[C@H](CCCNC(=N)N)NC(=O)[C@H](C)NC(=O)[C@H](C)NC(=O)[C@H](CCC(N)=O)NC(=O)[C@H](CCC(=O)O)NC(=O)[C@H](CCC(=O)O)NC(=O)[C@H](CC(C)C)NC(=O)[C@H](Cc1ccc(O)cc1)NC(=O)[C@H](CO)NC(=O)[C@H](CO)NC(=O)[C@@H](NC(=O)[C@H](CC(=O)O)NC(=O)[C@H](CO)NC(=O)[C@@H](NC(=O)[C@H](Cc1ccccc1)NC(=O)[C@@H](NC(=O)CNC(=O)[C@H](CCC(=O)O)NC(=O)C(C)(C)NC(=O)[C@@H](N)Cc1c[nH]cn1)[C@@H](C)O)[C@@H](C)O)C(C)C)C(=O)N[C@@H](CCCCNC(=O)COCCOCCNC(=O)COCCOCCNC(=O)C[C@H](NC(=O)C1CCN(C(=O)CCCCCCCCCCCCCCCCCCC(=O)O)CC1)C(=O)O)C(=O)N[C@@H](Cc1c[nH]c2ccccc12)C(=O)N[C@@H](CC(C)C)C(=O)N[C@H](C(=O)N[C@@H](CCCCN)C(=O)NCC(=O)N[C@@H](CCCNC(=N)N)C(=O)NCC(=O)O)C(C)C [Example 9, N-epsilon30{2-[2-(2-{2-[2-((S)-3-carboxy-3-{[1-(19-carboxynonadecanoyl)piperidine-4-carbonyl]amino}propionylamino)ethoxy]ethoxy}acetylamino)ethoxy]ethoxy}acetyl [Aib8,Glu22,Arg26,Lys30]GLP-1-(7-37)]
	0.15 to 0.3	CC[C@H](C)[C@H](NC(=O)[C@H](Cc1ccccc1)NC(=O)[C@H](CCC(=O)O)NC(=O)[C@H](CCCNC(=N)N)NC(=O)[C@H](C)NC(=O)[C@H](C)NC(=O)[C@H](CCC(N)=O)NC(=O)[C@H](CCC(=O)O)NC(=O)[C@H](CCC(=O)O)NC(=O)[C@H](CC(C)C)NC(=O)[C@H](Cc1ccc(O)cc1)NC(=O)[C@H](CO)NC(=O)[C@H](CO)NC(=O)[C@@H](NC(=O)[C@H](CC(=O)O)NC(=O)[C@H](CO)NC(=O)[C@@H](NC(=O)[C@H](Cc1ccccc1)NC(=O)[C@@H](NC(=O)CNC(=O)[C@H](CCC(=O)O)NC(=O)C(C)(C)NC(=O)[C@@H](N)Cc1c[nH]cn1)[C@@H](C)O)[C@@H](C)O)C(C)C)C(=O)N[C@@H](C)C(=O)N[C@@H](CCCCNC(=O)COCCOCCNC(=O)COCCOCCNC(=O)C[C@H](NC(=O)C1CCN(C(=O)CCCCCCCCCCCCCCCCCCC(=O)O)CC1)C(=O)O)C(=O)N[C@@H](CC(C)C)C(=O)N[C@H](C(=O)N[C@@H](CCCNC(=N)N)C(=O)NCC(=O)N[C@@H](CCCNC(=N)N)C(=O)NCC(=O)O)C(C)C [Example 15, N-epsilon31-(2-{2-[2-(2-{2-[2-((S)-3-Carboxy-3-{[1-(19-carboxy-nonadecanoyl)piperidine-4-carbonyl]amino}propionylamino)ethoxy]ethoxy}acetylamino)ethoxy]ethoxy}acetyl)[Aib8,Glu22,Arg26,Lys31,Arg34]GLP-1-(7-37)] (H-H[Aib]EGTFTSDVSSYLEEQAAREFIAK([AEEA-AEEA-βAsp-Inp-C20 diacid])LVRGRG-OH)
	0.001 to 0.1	CC[C@H](C)[C@H](NC(=O)[C@H](Cc1ccccc1)NC(=O)[C@H](CCC(=O)O)NC(=O)[C@H](CCCNC(=N)N)NC(=O)[C@H](C)NC(=O)[C@H](C)NC(=O)[C@H](CCC(N)=O)NC(=O)[C@H](CCC(=O)O)NC(=O)[C@H](CCC(=O)O)NC(=O)[C@H](CC(C)C)NC(=O)[C@H](Cc1ccc(O)cc1)NC(=O)[C@H](CO)NC(=O)[C@H](CO)NC(=O)[C@@H](NC(=O)[C@H](CC(=O)O)NC(=O)[C@H](CO)NC(=O)[C@@H](NC(=O)[C@H](Cc1ccccc1)NC(=O)[C@@H](NC(=O)CNC(=O)[C@H](CCC(=O)O)NC(=O)[C@H](C)NC(=O)CCc1c[nH]cn1)[C@@H](C)O)[C@@H](C)O)C(C)C)C(=O)N[C@@H](C)C(=O)N[C@@H](Cc1c[nH]c2ccccc12)C(=O)N[C@@H](CC(C)C)C(=O)N[C@H](C(=O)N[C@@H](CCCNC(=N)N)C(=O)NCC(=O)N[C@@H](CCCNC(=N)N)C(=O)NCCCC[C@H](NC(=O)COCCOCCNC(=O)COCCOCCNC(=O)CC[C@H](NC(=O)[C@H]1CC[C@H](CNC(=O)CCCCCCCCCCCCCCCCCCC(=O)O)CC1)C(=O)O)C(=O)O)C(C)C [Example 53, N-alpha37-[2-(2-{2-[2-(2-{2-[(S)-4-Carboxy-4-({trans-4-[(19-carboxynonadecanoylamino)methyl]cyclohexanecarbonyl}amino)butyrylamino]ethoxy}ethoxy)acetylamino]ethoxy}ethoxy)acetyl][DesaminoHis7,Glu22,Arg26,Arg34,epsilon-Lys37]GLP-1-(7-37)] (Desaminohistidyl-AEGTFTSDVSSYLEEQAAREFIAWLVRGR-X3)

From patent US9067977B2, “Peptides derivatized with A-B-C-D- and their therapeutical use” (Novo Nordisk A/S, priority 2007, dated 2015)
